Data from US11091479B2, “Triazolopyridin-3-ones or their salts and pharmaceutical compositions comprising the same” (YUHAN CORPORATION, priority 2018, dated 2021).
Counter-ions that a name gives are not always drawn.

Columns and labels:
Type in all cases: biochemical
[1] = target: T1, recombinant human MAO-A (monoamine oxidase-A) (Homo sapiens, UniProt P21397); assay: Activity on recombinant human MAO-A, method similar to VAP-1 assay, 0.5 mM tyramine substrate; conditions: read-out: Inhibitory Activity (IC50, nM) MAO-A
T1 construct: purchased Sigma-Aldrich
T1 sequence (P21397 1-527): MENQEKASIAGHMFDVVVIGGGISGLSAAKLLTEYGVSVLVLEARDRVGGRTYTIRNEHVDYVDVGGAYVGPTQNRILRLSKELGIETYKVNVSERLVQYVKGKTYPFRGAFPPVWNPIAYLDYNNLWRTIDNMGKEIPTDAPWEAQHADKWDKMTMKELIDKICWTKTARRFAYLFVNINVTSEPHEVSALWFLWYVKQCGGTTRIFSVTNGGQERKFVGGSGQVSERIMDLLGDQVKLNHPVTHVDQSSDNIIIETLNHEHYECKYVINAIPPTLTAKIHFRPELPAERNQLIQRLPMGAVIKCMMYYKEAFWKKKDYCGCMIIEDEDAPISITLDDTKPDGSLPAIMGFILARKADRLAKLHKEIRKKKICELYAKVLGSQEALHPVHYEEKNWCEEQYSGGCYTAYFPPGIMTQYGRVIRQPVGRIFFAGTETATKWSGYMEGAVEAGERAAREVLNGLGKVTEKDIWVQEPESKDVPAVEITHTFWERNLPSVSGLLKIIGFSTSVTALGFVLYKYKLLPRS
Procedure, shortened: (§1)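 Amplex Red/HRP-coupled H2O2 fluorescence assay run as for VAP-1: enzyme in 50 mM sodium phosphate pH 7.4 preincubated with compound 30 min at 37 °C, then substrate (putrescine for DAO, benzylamine for MAO-B, tyramine for MAO-A) added with 200 uM Amplex Red, 1 U/mL HRP. Signal rate over 1-2 h; IC50 from 4-parameter logistic fit.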

recombinant human VAP-1 = target: T2, recombinant human VAP-1 (Homo sapiens, UniProt Q16853); assay: Activity on recombinant human VAP-1, HRP-coupled Amplex Red hydrogen peroxide assay, benzylamine substrate; conditions: 30 min incubation at 37° C., 1 mM benzylamine, read-out: Inhibitory Activity (IC50, nM) human VAP-1
T2 construct: purchased R&D systems
T2 sequence (Q16853 1-763): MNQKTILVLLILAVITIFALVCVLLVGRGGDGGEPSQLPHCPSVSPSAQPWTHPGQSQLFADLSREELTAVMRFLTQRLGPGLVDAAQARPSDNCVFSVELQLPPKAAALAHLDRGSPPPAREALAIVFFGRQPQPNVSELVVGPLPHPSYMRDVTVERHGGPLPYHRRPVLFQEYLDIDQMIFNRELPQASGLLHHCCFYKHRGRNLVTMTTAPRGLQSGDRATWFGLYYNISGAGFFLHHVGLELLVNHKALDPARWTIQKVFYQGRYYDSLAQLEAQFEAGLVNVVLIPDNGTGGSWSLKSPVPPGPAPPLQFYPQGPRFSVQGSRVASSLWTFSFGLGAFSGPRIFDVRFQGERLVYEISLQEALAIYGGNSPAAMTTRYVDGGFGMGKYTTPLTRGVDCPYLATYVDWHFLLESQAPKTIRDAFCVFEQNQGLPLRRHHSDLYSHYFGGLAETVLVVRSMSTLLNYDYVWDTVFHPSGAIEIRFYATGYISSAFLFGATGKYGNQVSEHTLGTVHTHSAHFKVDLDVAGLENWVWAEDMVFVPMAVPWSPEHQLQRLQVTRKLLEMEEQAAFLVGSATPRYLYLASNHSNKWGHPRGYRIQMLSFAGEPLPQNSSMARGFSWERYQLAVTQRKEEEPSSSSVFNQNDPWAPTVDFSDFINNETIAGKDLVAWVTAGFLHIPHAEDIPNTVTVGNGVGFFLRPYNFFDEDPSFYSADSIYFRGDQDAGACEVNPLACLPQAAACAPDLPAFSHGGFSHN
Procedure, shortened: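 Recombinant human VAP-1 in 50 mM sodium phosphate pH 7.4 preincubated with compound for 30 min at 37 °C, then 1 mM benzylamine, 200 uM Amplex Red and 1 U/mL HRP added. Resorufin fluorescence (ex 544/em 590 nm) followed over 1-2 h; % signal-rate decrease vs DMSO control, 8-point 4-parameter fit for IC50.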

[2] = target: T3, recombinant human MAO-B (monoamine oxidase-B) (Homo sapiens, UniProt P27338); assay: Activity on recombinant human MAO-B, method similar to VAP-1 assay, 1 mM benzylamine substrate; conditions: read-out: Inhibitory Activity (IC50, nM) MAO-B
T3 construct: purchased Sigma-Aldrich
T3 sequence (P27338 1-520): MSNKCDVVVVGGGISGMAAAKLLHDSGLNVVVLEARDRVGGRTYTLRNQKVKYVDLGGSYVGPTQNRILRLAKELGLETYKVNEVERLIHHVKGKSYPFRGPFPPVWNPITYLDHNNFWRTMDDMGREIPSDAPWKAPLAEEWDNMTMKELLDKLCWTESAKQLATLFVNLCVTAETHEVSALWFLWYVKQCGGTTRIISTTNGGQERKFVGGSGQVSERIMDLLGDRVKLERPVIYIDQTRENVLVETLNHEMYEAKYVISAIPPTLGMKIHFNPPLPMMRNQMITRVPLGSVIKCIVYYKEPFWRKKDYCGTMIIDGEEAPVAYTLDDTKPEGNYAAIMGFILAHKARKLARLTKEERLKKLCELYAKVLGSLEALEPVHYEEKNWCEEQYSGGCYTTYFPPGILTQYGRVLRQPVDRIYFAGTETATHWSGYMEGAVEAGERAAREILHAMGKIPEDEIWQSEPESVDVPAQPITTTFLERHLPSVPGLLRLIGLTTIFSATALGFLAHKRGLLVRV
Procedure, shortened: as §1

[3] = target: T4, recombinant human DAO (diamine oxidase) (Homo sapiens, UniProt P19801); assay: Activity on recombinant human DAO, method similar to VAP-1 assay, 1 mM putrescine substrate; conditions: read-out: Inhibitory Activity (IC50, nM) DAO
T4 construct: purchased R&D systems
T4 sequence (P19801 20-751): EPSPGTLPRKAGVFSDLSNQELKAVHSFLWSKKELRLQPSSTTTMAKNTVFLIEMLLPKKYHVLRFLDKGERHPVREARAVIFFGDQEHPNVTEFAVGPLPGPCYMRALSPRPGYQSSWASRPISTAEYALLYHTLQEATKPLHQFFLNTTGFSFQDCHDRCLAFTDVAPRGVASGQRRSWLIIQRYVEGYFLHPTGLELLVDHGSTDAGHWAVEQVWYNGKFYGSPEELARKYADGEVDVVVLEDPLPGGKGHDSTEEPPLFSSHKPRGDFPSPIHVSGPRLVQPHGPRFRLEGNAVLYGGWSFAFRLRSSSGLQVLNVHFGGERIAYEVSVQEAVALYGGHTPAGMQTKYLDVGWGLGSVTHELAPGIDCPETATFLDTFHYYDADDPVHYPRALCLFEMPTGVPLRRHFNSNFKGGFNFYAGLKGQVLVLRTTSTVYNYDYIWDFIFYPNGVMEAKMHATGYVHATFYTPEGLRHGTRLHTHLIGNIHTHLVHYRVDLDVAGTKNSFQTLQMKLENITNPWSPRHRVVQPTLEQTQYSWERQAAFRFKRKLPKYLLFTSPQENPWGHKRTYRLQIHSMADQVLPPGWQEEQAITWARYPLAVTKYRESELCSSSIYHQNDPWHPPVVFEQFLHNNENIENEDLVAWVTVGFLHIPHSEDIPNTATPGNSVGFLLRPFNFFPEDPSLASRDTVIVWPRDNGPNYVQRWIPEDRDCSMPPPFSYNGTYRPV
Procedure, shortened: as §1

| IC50 [1] [nM] | IC50 (recombinant human VAP-1) [nM] | IC50 [2] [nM] | IC50 [3] [nM] | SMILES |
| --- | --- | --- | --- | --- |
| 10200 | 4.5 | 52 | < 100 | NC/C(=C\F)Cn1nc2ccc(-c3ccc4nonc4c3)cn2c1=O [Example 16, 2-[(2E)-2-(aminomethyl)-3-fluoroprop-2-en-1-yl]-6-(2,1,3-benzoxadiazol-5-yl)[1,2,4]triazolo[4,3-a]pyridin-3(2H)-one trifluoroacetate] |
| > 100000 | 0.3 | 37 | 160 | NCC(Cn1nc2cc(-c3ccc4c(c3)OCO4)ccn2c1=O)=C(F)F [Example 52, 2-[2-(aminomethyl)-3,3-difluoro-allyl]-7-(1,3-benzodioxol-5-yl)-[1,2,4]triazolo[4,3-a]pyridin-3-one trifluoroacetate] |
| > 100000 | 1.6 | 53000 | 390 | NCC(Cn1nc2cc(-c3ccc(N4CCNCC4)cc3)ccn2c1=O)=C(F)F [Example 49, 2-[2-(aminomethyl)-3,3-difluoro-allyl]-7-(4-piperazin-1-ylphenyl)-[1,2,4]triazolo[4,3-a]pyridin-3-one ditrifluoroacetate] |
